Experimental data: patent publication US11547761B1, “Antibody adjuvant conjugates” (The Board of Trustees of the Leland Stanford Junior …, priority 2016, dated 2023)
Entries after “also recorded” stand apart in the source; their conditions may differ.

Tests used:
Format in all cases: cell-based
[1] = biological target: T1, human TLR7 (Homo sapiens, UniProt Q9NYK1); assay: HEK293 TLR reporter (secreted embryonic alkaline phosphatase) assay; conditions: 2-fold serial dilutions, 12 hours at 37° C.
T1 construct: expressed in transfected cells; host or cells: HEK293
T1 sequence (Q9NYK1 27-1049): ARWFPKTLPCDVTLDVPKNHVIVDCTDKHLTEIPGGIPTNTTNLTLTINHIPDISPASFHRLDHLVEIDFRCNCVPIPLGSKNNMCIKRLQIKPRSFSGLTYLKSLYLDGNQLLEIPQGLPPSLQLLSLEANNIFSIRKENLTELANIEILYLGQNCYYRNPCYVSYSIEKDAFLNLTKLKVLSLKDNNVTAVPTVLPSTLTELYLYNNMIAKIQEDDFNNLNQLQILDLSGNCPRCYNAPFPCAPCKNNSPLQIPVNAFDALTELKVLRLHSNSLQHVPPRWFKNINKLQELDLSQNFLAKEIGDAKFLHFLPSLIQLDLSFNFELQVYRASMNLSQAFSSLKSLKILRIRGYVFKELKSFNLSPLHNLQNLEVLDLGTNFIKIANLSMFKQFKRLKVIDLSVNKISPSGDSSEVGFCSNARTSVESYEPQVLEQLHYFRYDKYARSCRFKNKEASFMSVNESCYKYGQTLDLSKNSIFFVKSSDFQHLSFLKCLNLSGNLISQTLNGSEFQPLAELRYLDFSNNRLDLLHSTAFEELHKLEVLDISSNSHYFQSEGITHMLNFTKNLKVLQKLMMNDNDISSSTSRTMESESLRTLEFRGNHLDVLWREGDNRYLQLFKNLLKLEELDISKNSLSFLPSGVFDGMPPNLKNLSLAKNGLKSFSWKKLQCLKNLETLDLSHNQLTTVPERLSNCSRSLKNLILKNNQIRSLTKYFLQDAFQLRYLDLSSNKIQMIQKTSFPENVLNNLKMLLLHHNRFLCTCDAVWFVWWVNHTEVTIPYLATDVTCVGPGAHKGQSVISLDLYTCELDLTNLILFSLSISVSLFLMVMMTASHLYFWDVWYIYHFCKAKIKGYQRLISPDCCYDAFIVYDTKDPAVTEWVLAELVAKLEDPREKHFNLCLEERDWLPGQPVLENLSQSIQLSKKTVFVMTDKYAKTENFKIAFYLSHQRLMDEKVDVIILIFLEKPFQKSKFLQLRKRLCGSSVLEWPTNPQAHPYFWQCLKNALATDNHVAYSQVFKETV
Protocol: (§1) HEK293 cells were co-transfected with human TLR7 or TLR8 (top two panels) or murine TLR7 (bottom panel) and an inducible secreted embryonic alkaline phosphatase reporter gene under the control of the IFN-β minimal promoter fused to NF-κB and AP-1 binding sites. Cells were subsequently incubated with 2-fold serial dilutions of the indicated adjuvant for 12 hours at 37° C. Activity was measured by spectrophotometry (OD 650 nm) following addition of alkaline phosphatase substrate.
(§2) Next, the capacity of each functionalized TLR agonist to activate human TLR7 or TLR8 was directly assayed. HEK293 cells were co-transfected with human TLR7 or TLR8 or murine TLR7 and an inducible secreted embryonic alkaline phosphatase reporter gene under the control of the IFN-β minimal promoter fused to NF-κB and AP-1 binding sites. Cells were subsequently incubated with 2-fold serial dilutions of each the indicated adjuvants for 12 hours at 37 C in the presence of an alkaline phosphatase substrate. Activity was measured by spectrophotometry (OD 650 nm).

[2] = biological target: T2, murine TLR7 (Mus musculus, UniProt P58681); assay: as above; conditions: 2-fold serial dilutions, 12 hours at 37° C.
T2 construct: expressed in transfected cells; host or cells: HEK293
T2 sequence (P58681 27-1050): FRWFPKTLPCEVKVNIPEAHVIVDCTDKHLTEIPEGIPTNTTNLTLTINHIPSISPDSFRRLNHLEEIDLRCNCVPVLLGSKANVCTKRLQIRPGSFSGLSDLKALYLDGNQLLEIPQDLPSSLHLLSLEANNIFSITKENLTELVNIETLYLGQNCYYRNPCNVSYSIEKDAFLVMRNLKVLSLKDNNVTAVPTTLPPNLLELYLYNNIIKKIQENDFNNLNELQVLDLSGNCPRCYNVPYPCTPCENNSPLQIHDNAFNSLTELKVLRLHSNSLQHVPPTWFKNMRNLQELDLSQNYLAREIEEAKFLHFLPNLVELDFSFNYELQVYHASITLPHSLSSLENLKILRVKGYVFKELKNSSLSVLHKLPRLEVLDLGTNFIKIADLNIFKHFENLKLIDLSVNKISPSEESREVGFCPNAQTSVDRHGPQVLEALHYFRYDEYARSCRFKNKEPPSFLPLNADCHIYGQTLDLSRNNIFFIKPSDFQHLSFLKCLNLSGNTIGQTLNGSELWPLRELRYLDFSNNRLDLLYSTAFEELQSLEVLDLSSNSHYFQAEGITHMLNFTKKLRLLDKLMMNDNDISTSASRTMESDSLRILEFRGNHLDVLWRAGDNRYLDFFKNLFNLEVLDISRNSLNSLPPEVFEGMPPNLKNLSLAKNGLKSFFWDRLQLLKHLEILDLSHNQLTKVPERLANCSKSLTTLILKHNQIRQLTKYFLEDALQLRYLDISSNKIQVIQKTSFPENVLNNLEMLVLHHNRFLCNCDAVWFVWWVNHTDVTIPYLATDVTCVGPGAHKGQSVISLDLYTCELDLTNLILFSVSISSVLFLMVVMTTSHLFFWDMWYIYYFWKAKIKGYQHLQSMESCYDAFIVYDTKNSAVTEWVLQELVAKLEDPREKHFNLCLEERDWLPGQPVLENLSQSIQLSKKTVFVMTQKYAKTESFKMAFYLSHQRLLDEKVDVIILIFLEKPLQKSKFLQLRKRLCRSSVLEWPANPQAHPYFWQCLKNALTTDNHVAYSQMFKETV
Protocol: as §1, §2

[3] = biological target: T3, human TLR8 (Homo sapiens, UniProt Q9NR97); assay: as above; conditions: 2-fold serial dilutions, 12 hours at 37° C.
T3 construct: expressed in transfected cells; host or cells: HEK293
T3 sequence (Q9NR97 27-1041): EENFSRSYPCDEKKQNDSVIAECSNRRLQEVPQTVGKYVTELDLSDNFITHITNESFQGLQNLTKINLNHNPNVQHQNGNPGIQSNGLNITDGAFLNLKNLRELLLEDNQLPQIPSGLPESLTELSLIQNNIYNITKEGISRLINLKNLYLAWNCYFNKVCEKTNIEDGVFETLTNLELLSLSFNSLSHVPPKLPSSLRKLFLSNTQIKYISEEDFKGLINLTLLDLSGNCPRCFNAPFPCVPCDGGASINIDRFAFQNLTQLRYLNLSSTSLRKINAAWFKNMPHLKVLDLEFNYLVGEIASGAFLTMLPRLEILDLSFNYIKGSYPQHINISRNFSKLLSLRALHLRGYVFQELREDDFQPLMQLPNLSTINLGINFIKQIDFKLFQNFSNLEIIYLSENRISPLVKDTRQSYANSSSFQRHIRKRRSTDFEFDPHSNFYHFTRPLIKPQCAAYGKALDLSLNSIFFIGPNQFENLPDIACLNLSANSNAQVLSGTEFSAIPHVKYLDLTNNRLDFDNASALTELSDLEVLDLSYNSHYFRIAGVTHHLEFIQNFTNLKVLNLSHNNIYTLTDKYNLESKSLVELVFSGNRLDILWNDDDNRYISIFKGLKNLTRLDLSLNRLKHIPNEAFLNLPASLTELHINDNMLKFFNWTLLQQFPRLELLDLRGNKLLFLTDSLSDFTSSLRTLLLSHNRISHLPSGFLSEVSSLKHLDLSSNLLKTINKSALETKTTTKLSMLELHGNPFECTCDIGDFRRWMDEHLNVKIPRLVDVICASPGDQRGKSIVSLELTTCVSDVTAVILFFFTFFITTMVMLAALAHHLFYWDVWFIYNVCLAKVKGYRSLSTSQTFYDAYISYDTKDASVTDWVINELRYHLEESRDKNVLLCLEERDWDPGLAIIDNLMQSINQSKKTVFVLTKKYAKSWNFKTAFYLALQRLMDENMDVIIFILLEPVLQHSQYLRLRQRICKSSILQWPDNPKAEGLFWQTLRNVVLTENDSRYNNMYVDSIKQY
Protocol: as §1, §2

[4] = test system: human antigen presenting cells; assay: Stimulation of human antigen presenting cells with free adjuvants, flow cytometry; conditions: peripheral blood APCs, 10-fold serial dilutions, 18 hours, 37° C.
Protocol: Peripheral blood antigen presenting cells (APCs) were stimulated with 10-fold serial dilutions of R848, Compound 2 or a control TLR agonist at 37° C. After 18 hours, cells were analyzed via flow cytometry. Data are presented as median fluorescence intensity of each indicated marker; n=3.
To determine if adjuvant functionalization impacted the capacity of Compound 2 or Compound 1 to elicit immune activation, human antigen presenting cells were stimulated with 10-fold serial dilutions of R848, Compound 2, Compound 1 or a control TLR agonist, CL307, for 18 hours prior to analysis via flow cytometry.

[5] = test system: human APCs (myeloid cells); assay: APC-tumor co-culture / myeloid cell stimulation, surface markers by flow cytometry; conditions: 18 hours of stimulation; compared with the corresponding unconjugated antibody unless the value names another comparator
Text: (§3) Human antigen presenting cells (APCs) were negatively selected from human peripheral blood mononuclear cells obtained from healthy blood donors (Stanford Blood Center) by density gradient centrifugation using a RosetteSep Human Monocyte Enrichment Cocktail (Stem Cell Technologies) containing monoclonal antibodies against CD2, CD3, CD8, CD19, CD56, CD66b and CD235a. Immature APCs were subsequently purified to >97% purity via negative selection using an EasySep Human Monocyte Enrichment Kit without CD16 depletion containing monoclonal antibodies against CD2, CD3, CD19, CD20, CD56, CD66b, CD123 and CD235a.
Tumor cells were resuspended in PBS with 0.1% fetal bovine serum (FBS) at 1 to 10×10^6 cells/mL. Cells were subsequently incubated with 2 μM CFSE to yield a final concentration of 1 μM. The reaction was ended after 2 minutes via the addition of 10 mL complete medium with 10% FBS and washed once with complete medium. Cells were either fixed in 2% paraformaldehyde and washed three times with PBS or left unfixed prior to freezing the cells in 10% DMSO, 20% FBS and 70% medium.
(§4) 2×10^5 APCs were incubated with or without 6.5×10^5 autologous or allogeneic CFSE-labeled tumor cells in 96-well plates (Corning) containing IMDM medium (Gibco) supplemented with 10% fetal bovine serum, 100 U/mL penicillin, 100 μg/mL streptomycin, 2 mM L-glutamine, sodium pyruvate, non-essential amino acids, 50 μM 2-ME and, where indicated, various concentrations of anti-tumor antibody and the indicated adjuvants. Cells and cell-free supernatants were analyzed after 18 hours via flow cytometry.
as §3, with “[…]” for “CD2, CD3, CD8, CD19, CD56, CD66b”, “[…].” for “CD235a.”, “CD14, CD16, CD40, CD86, CD123,” for “CD2, CD3, CD19, CD20, CD56, CD66b, CD123”
as §4, with “antibody.” for “anti-tumor antibody and the indicated adjuvants.”
(§5) 2×10^5 APCs were incubated with or without 6.5×10^5 allogeneic CFSE-labeled tumor cells in 96-well plates (Corning) containing IMDM medium (Gibco) supplemented with 10% fetal bovine serum, 100 U/mL penicillin, 100 μg/mL streptomycin, 2 mM L-glutamine, sodium pyruvate, non-essential amino acids and, where indicated, various concentrations of unconjugated CD20 antibody, and immunoconjugates of the invention were prepared according to the examples above. Cells and cell-free supernatants were analyzed after 18 hours via flow cytometry or ELISA.

[6] = test system: human APCs (myeloid cells); assay: Cytokine secretion from human APCs / myeloid cells (cell free supernatants); conditions: 36 hours of stimulation; compared to equimolar unconjugated antibody
Protocol: After 18 hours, cell free supernatants were analyzed for cytokine secretion via cytokine bead arrays; n=3. P-values≤0.05 depicted by *, P-values≤0.01 depicted by **, P-values≤0.001 depicted by ***, P-values≤0.0001 depicted by ****.
as §4, with “Cells and cell-free supernatants were analyzed after 18 hours via flow cytometry.” left out
While the expression of T cell stimulatory molecules such as CD40, CD86 and HLA-DR is necessary for effective T cell activation, APCs also influence the nature of the ensuing immune response through the secretion of cytokines. Therefore, the capacity of immunoconjugates to elicit cytokine secretion in human APCs following stimulation was investigated as described above.
The capacity of these immunoconjugates to elicit cytokine secretion in human APCs following stimulation was investigated as described in Example 3 above.
as §5, with “Cells and cell-free supernatants were analyzed after 18 hours via flow cytometry or ELISA.” left out

| Compound | human TLR7 activation (OD 650 nm) [1] | murine TLR7 activation (OD 650 nm) [2] | human TLR8 activation (OD 650 nm) [3] | myeloid cell activation (median fluorescence intensity of activation markers) [4] | CD16 downregulation on myeloid cells [5] | CD40 upregulation on myeloid cells [5] | CD86 upregulation on myeloid cells [5] | IL-1β secretion from myeloid cells [6] | TNFα secretion from myeloid cells [6] | CD123 upregulation on myeloid cells [5] |
| --- | --- | --- | --- | --- | --- | --- | --- | --- | --- | --- |
| CCCCc1nc2c(N)nc3ccccc3c2n1CCCCN1C(=O)C=CC1=O [Compound 2] | specific for TLR7 activity | activated murine TLR7 | specific for TLR7 activity | performed similarly to R848; also recorded: potent inducer of myeloid cell activation | – | – | – | – | – | – |
| Rituximab-Pam2CSK4 Boltbody | – | – | – | – | superior | superior | superior | superior | superior | – |
| Rituximab-Pam3CSK4 Boltbody | – | – | – | – | superior | superior | superior | superior | superior | superior |
